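Dose response: 5 concentrations. Exposure: 48 h. Format: 96-well plates. Endpoint: linear interpolation; highest concentration if not reached. At the GI50, growth is halved.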 Active and inactive are the calls of the source. No stated cut-off is given here; in the data, active = GI50 up to about 1.1 µM and inactive = higher.
Key:
Assay in all cases: growth of human tumour cells (NCI), 48 h
DMS-114 = tested on: DMS-114
DMS-273 = tested on: DMS-273
M19-MEL = tested on: M19-MEL
RXF 631 = tested on: RXF 631
SNB-78 = tested on: SNB-78
XF498 = tested on: XF498
HOP-18 = tested on: HOP-18
Hs-578T = tested on: Hs-578T
MDA-N = tested on: MDA-N

Measured: GI50

Cn1ccnc1C(c1nccn1C)C(C)(C)[N+](=O)[O-]
inactive: DMS-114 > 100 µM | DMS-273 > 100 µM | M19-MEL > 100 µM | RXF 631 > 100 µM | SNB-78 > 100 µM | XF498 > 100 µM

Cn1cnc([N+](=O)[O-])c1Sc1n[nH]c(-c2ccc(Cl)cc2)n1
inactive: DMS-114 18.2 µM | DMS-273 16.9 µM | HOP-18 1.47 µM | M19-MEL 19 µM | RXF 631 20.7 µM | SNB-78 19.8 µM | XF498 10.1 µM

CCOC(=O)C(=O)CC(=O)C(Br)C(Br)c1ccc(Cl)cc1 (centres undefined)
inactive: DMS-114 43 µM | DMS-273 70.5 µM | M19-MEL 23.2 µM | RXF 631 > 100 µM | SNB-78 44.2 µM

O=C(CCN1CCCCC1)C(=Cc1ccccc1)C(=O)CCN1CCCCC1
inactive: DMS-114 2.77 µM | DMS-273 > 100 µM | HOP-18 > 10 µM | M19-MEL 67.3 µM | SNB-78 > 62.5 µM | XF498 > 100 µM

CC1=C(C(=O)CC(=O)C(=O)Nc2ccc(Cl)cc2C)Sc2ccccc2N1
inactive: DMS-114 > 92.7 µM | DMS-273 > 100 µM | HOP-18 > 100 µM | M19-MEL > 100 µM | RXF 631 > 100 µM | SNB-78 > 100 µM | XF498 > 100 µM

N=C(N)NS(=O)(=O)c1ccc(NC(=O)c2cccc3c(Nc4ccc(S(=O)(=O)N=C(N)N)cc4)c4ccccc4nc23)cc1
inactive: DMS-114 24.9 µM | DMS-273 55.2 µM | HOP-18 > 100 µM | M19-MEL 47.4 µM | RXF 631 > 100 µM | SNB-78 24.8 µM | XF498 > 100 µM

COc1ccc(/C=C(\NC(=O)c2ccccc2)c2nc3ccccc3[nH]2)cc1OC
inactive: DMS-114 > 100 µM | HOP-18 > 100 µM | M19-MEL > 100 µM | RXF 631 > 100 µM | SNB-78 > 100 µM | XF498 > 100 µM

O=C1c2ccccc2C(=O)N1CC#CCO
inactive: DMS-273 > 100 µM | M19-MEL > 100 µM | RXF 631 > 100 µM | SNB-78 > 100 µM | XF498 > 100 µM

OCC1OC2c3ccccc3COC2C1OCc1ccccc1 (centres undefined)
inactive: DMS-114 59.4 µM | HOP-18 > 100 µM | M19-MEL > 100 µM | RXF 631 > 100 µM | SNB-78 > 100 µM | XF498 49.2 µM

Cn1ncc2c(Nc3ccc(Cl)cc3)c3ccccc3nc21
inactive: DMS-114 13.4 µM | DMS-273 15.2 µM | HOP-18 22.3 µM | M19-MEL 19.3 µM | RXF 631 13.1 µM | SNB-78 24.4 µM | XF498 > 10 µM

COc1ccc(Nc2nc3ccc(C(F)(F)F)cc3nc2-c2ccccc2)cc1OC
inactive: DMS-114 38.7 µM | DMS-273 32.4 µM | RXF 631 39.6 µM | XF498 49.1 µM

C/C1=C/C2OC(=O)C3(C)C2C(CC2(C)OC1=CC2=O)OC3(O)C(C)C (centres undefined)
inactive: DMS-114 14.3 µM | DMS-273 33 µM | HOP-18 37.8 µM | Hs-578T 59 µM | M19-MEL 34.4 µM | MDA-N 53.7 µM | RXF 631 33.1 µM | SNB-78 35.2 µM | XF498 23.7 µM

CC(C)(C)[Si](Nc1ccccc1)(c1ccccc1)c1ccccc1
inactive: DMS-114 13.2 µM | DMS-273 13.6 µM | HOP-18 13.7 µM | M19-MEL 14.2 µM | RXF 631 15.5 µM | SNB-78 16.4 µM | XF498 14.6 µM

C#Cc1cccc(N2C(=O)CCC2=O)c1
inactive: DMS-114 14.8 µM | DMS-273 23.2 µM | HOP-18 16.7 µM | Hs-578T 17.3 µM | M19-MEL 19.5 µM | MDA-N 14.2 µM | RXF 631 21.5 µM | SNB-78 18.5 µM | XF498 15 µM

O=C(NCCCC/N=c1/cccccc1NCCCCNC(=O)OCc1ccccc1)OCc1ccccc1
inactive: DMS-114 8.11 µM | DMS-273 17.5 µM | M19-MEL 20.2 µM | RXF 631 13.3 µM | SNB-78 24.6 µM | XF498 4.29 µM

Clc1cccc(Cl)c1C1SCc2nc3ccccc3n21 (centres undefined)
inactive: DMS-114 25.2 µM | DMS-273 14.6 µM | HOP-18 > 100 µM | M19-MEL > 100 µM | RXF 631 15.4 µM | SNB-78 > 100 µM | XF498 > 100 µM
